According to publication PMC4363860 (Scientific Reports, 2015):
Where two headings read alike, the source gives them in different places.

Tests used:
E. coli 14384 = assay: Chemo-sensitization (Suppl. Table S1); settings: for MIC: Escherichia coli, 14384, read-out: MIC of rifampin in presence of C10KKc12K, E. coli 14384
E. coli 35218 = assay: Chemo-sensitization (Suppl. Table S1); settings: for MIC: Escherichia coli, 35218, read-out: MIC of rifampin in presence of C10KKc12K, E. coli 35218
K. pneumoniae 1287 = assay: Chemo-sensitization (Suppl. Table S1)
E. coli 14182 = assay: Chemo-sensitization (Suppl. Table S1)
[1] = Pharmacokinetic study, plasma concentrations by LC-MS; type: in vivo; settings: mice, oral 20 mg/Kg, N = 2 mice/time point, mean ± s.d.
Procedure: Drugs blood concentrations were determined by LC-MS using calibrated curves essentially as described[5][9]. […] At specified time intervals mice were euthanized (CO2 asphyxiation) and blood samples collected from vena cava (N = 2 mice/time point). For analysis, samples were centrifuged (2 min, 6000 × g), 200 μl plasma were mixed with 0.5 ml extraction buffer (50% acetonitrile (ACN): 50% methanol) incubated (30 min on plate shaker at 200 rpm, RT), centrifuged (2 min, 14000 × g) and 300 μl supernatant diluted twofold in DDW and analyzed by LC-MS (5 μl injected to Waters Xevo G2 Tof/ACQUITY UPLC H-Class system). Flow rate, 0.5 ml/min. Run time, 5 min. Mobile phase, ACN/DDW combination containing 0.1% formic acid using an ACQUITY UPLC BEH column (C18 1.7 μm) and eluted with a 0–90% ACN gradient. Quantification was by MS detection in positive ionization mode using an identical procedure that was performed in mouse whole blood in order to establish standard calibration curves.

E. coli 16327 = assay: Chemo-sensitization (Suppl. Table S1)
Klebsiella = assay: MIC (Suppl. Figs S2, S3); type: cell-based
E. coli = assay: MIC and reciprocal sensitization (Fig. 2a,b; Suppl. Figs S2, S3); type: cell-based, Escherichia coli
E. coli 16329 = assay: Chemo-sensitization (Suppl. Table S1)
S. Typhimurium 14028 = assay: Chemo-sensitization (Suppl. Table S1); settings: for MIC: Salmonella enterica, TYPHIMURIUM
S. stanley 7308 = assay: Chemo-sensitization (Suppl. Table S1); type: cell-based, Salmonella; settings: for MIC: Salmonella enterica, 7308, read-out: MIC of rifampin in presence of C10KKc12K, S. stanley 7308
K. pneumoniae = assay: Efficacy, peritonitis-sepsis model in neutropenic mice; type: in vivo, Klebsiella pneumoniae; settings: IP K. pneumoniae 3 × 10^7 CFU, rifampin oral 0.45 mg/mouse or OAK SC 0.3 mg/mouse, 2 experiments, 10 mice/group, vehicle 20 ± 10%
Procedure: Animal studies were performed using male ICR mice (weight range, 23 ± 2 g) obtained from Harlan Laboratories (Rehovot, Israel). Procedures, care and handling of animals were reviewed and approved by Technion Animal Care and Use Committee.
Mice were rendered neutropenic by intraperitoneal (IP) injection of cyclophosphamide (150 and 100 mg/Kg on days 0 and 3, respectively). The procedure was confirmed to result in severe neutropenia by day 4, at which time infection was induced. The peritonitis-sepsis model was used whereby infection was obtained after IP injection of a logarithmic-phase culture of K. pneumoniae (3 × 10^7 CFU/mice in 0.3 ml PBS). […] Mice survival was monitored for up to 7 days post-treatment. Survival data were obtained from 2 independent experiments (n = 10 mice/group/experiment). Statistical analysis was performed using a paired t test were α equals 0.05.

In the case of `CO[C@H]1/C=C/O[C@@]2(C)Oc3c(C)c(O)c4c(O)c(c(/C=N/N5CCN(C)CC5)c(O)c4c3C2=O)NC(=O)/C(C)=C\C=C\[C@H](C)[C@H](O)[C@@H](C)[C@@H](O)[C@@H](C)[C@H](OC(C)=O)[C@@H]1C` [rifampin], the “SF, sensitization factor, rifampin with C10KKc12K” value (“SF … with C10KKc12K” for short) (E. coli 14384; E. coli 14384) was 258, the MIC (E. coli 14384; OAK 0 µg/ml) was 8 µg/mL and the MIC (E. coli 14384; OAK 1.25 µg/ml) was 0.5 µg/mL. For the same compound, the MIC (E. coli 14384; OAK 2.5 µg/ml) was 0.125 µg/mL, the MIC (E. coli 14384; OAK 5 µg/ml) was 0.031 µg/mL and the “SF … with C10KKc12K” value (E. coli 35218; E. coli 35218) was 258. It also gave an MIC (E. coli 35218; OAK 0 µg/ml) of 8 µg/mL, an MIC (E. coli 35218; OAK 1.25 µg/ml) of 0.5 µg/mL and an MIC (E. coli 35218; OAK 5 µg/ml) of 0.031 µg/mL. The “SF, sensitization factor, rifampin with C12(ω7)KKc12K” value (“SF … with C12(ω7)KKc12K” below) (K. pneumoniae 1287; K. pneumoniae 1287) was 5333, the MIC (K. pneumoniae 1287; Klebsiella pneumoniae, 1287, read-out: MIC of rifampin in presence of C10KKc12K, K. pneumoniae 1287, OAK 1.25 µg/ml) was 8 µg/mL and the MIC (K. pneumoniae 1287; Klebsiella pneumoniae, 1287, read-out: MIC of rifampin in presence of C10KKc12K, K. pneumoniae 1287, OAK 2.5 µg/ml) was 0.031 µg/mL. The MIC (K. pneumoniae 1287; Klebsiella pneumoniae, 1287, read-out: MIC of rifampin in presence of C12(ω7)KKc12K, K. pneumoniae 1287, OAK 1.25 µg/ml) was 4 µg/mL, the MIC (K. pneumoniae 1287; Klebsiella pneumoniae, 1287, read-out: MIC of rifampin in presence of C12(ω7)KKc12K, K. pneumoniae 1287, OAK 2.5 µg/ml) was 0.1 µg/mL and the MIC (K. pneumoniae 1287; Klebsiella pneumoniae, 1287, read-out: MIC of rifampin in presence of C12(ω7)KKc12K, K. pneumoniae 1287, OAK 5 µg/ml) was 0.006 µg/mL. For the same compound, the “SF … with C10KKc12K” value (E. coli 14182; E. coli 14182) was 516, the “SF … with C12(ω7)KKc12K” value (E. coli 14182; E. coli 14182) was > 800 and the MIC (E. coli 14182; Escherichia coli, 14182, read-out: MIC of rifampin in presence of C10KKc12K, E. coli 14182, OAK 0 µg/ml) was 16 µg/mL. For the same compound, the MIC (E. coli 14182; Escherichia coli, 14182, read-out: MIC of rifampin in presence of C10KKc12K, E. coli 14182, OAK 1.25 µg/ml) was 4 µg/mL, the MIC (E. coli 14182; Escherichia coli, 14182, read-out: MIC of rifampin in presence of C10KKc12K, E. coli 14182, OAK 2.5 µg/ml) was 0.125 µg/mL and the MIC (E. coli 14182; Escherichia coli, 14182, read-out: MIC of rifampin in presence of C10KKc12K, E. coli 14182, OAK 5 µg/ml) was 0.031 µg/mL. The MIC (E. coli 14182; Escherichia coli, 14182, read-out: MIC of rifampin in presence of C12(ω7)KKc12K, E. coli 14182, OAK 0 µg/ml) was 8 µg/mL, the MIC (E. coli 14182; Escherichia coli, 14182, read-out: MIC of rifampin in presence of C12(ω7)KKc12K, E. coli 14182, OAK 1.25 µg/ml) was 8 µg/mL and the MIC (E. coli 14182; Escherichia coli, 14182, read-out: MIC of rifampin in presence of C12(ω7)KKc12K, E. coli 14182, OAK 2.5 µg/ml) was 0.031 µg/mL. For the same compound, the MIC (E. coli 14182; Escherichia coli, 14182, read-out: MIC of rifampin in presence of C12(ω7)KKc12K, E. coli 14182, OAK 5 µg/ml) was < 0.01 µg/mL, the “plasma concentration reached after oral administration” value [1] was 13260 ± 2250 ng/mL and the “SF … with C10KKc12K” value (E. coli 16327; E. coli 16327) was 2000. For the same compound, the “SF … with C12(ω7)KKc12K” value (E. coli 16327; E. coli 16327) was > 3200, the MIC (E. coli 16327; Escherichia coli, 16327, read-out: MIC of rifampin in presence of C10KKc12K, E. coli 16327, OAK 0 µg/ml) was 16 µg/mL and the MIC (E. coli 16327; Escherichia coli, 16327, read-out: MIC of rifampin in presence of C10KKc12K, E. coli 16327, OAK 1.25 µg/ml) was 0.5 µg/mL. For the same compound, the MIC (E. coli 16327; Escherichia coli, 16327, read-out: MIC of rifampin in presence of C10KKc12K, E. coli 16327, OAK 2.5 µg/ml) was 0.031 µg/mL, the MIC (E. coli 16327; Escherichia coli, 16327, read-out: MIC of rifampin in presence of C10KKc12K, E. coli 16327, OAK 5 µg/ml) was 0.008 µg/mL and the MIC (E. coli 16327; Escherichia coli, 16327, read-out: MIC of rifampin in presence of C12(ω7)KKc12K, E. coli 16327, OAK 0 µg/ml) was 16 to 32 µg/mL. For the same compound, the MIC (E. coli 16327; Escherichia coli, 16327, read-out: MIC of rifampin in presence of C12(ω7)KKc12K, E. coli 16327, OAK 1.25 µg/ml) was 8 µg/mL, the MIC (E. coli 16327; Escherichia coli, 16327, read-out: MIC of rifampin in presence of C12(ω7)KKc12K, E. coli 16327, OAK 2.5 µg/ml) was < 0.01 µg/mL and the MIC (E. coli 16327; Escherichia coli, 16327, read-out: MIC of rifampin in presence of C12(ω7)KKc12K, E. coli 16327, OAK 5 µg/ml) was < 0.01 µg/mL. For the same compound, the “standalone antibiotic MIC” value (Klebsiella) was 32 µg/mL, the “standalone antibiotic MIC” value (E. coli) was 16 µg/mL and the “SF … with C10KKc12K” value (E. coli 16329; E. coli 16329) was 2000. The “SF … with C12(ω7)KKc12K” value (E. coli 16329; E. coli 16329) was 2000, the MIC (E. coli 16329; Escherichia coli, 16329, read-out: MIC of rifampin in presence of C10KKc12K, E. coli 16329, OAK 0 µg/ml) was 16 µg/mL and the MIC (E. coli 16329; Escherichia coli, 16329, read-out: MIC of rifampin in presence of C10KKc12K, E. coli 16329, OAK 1.25 µg/ml) was 0.5 µg/mL. It also gave an MIC (E. coli 16329; Escherichia coli, 16329, read-out: MIC of rifampin in presence of C10KKc12K, E. coli 16329, OAK 5 µg/ml) of 0.008 µg/mL, an MIC (E. coli 16329; Escherichia coli, 16329, read-out: MIC of rifampin in presence of C12(ω7)KKc12K, E. coli 16329, OAK 0 µg/ml) of 16 µg/mL and an MIC (E. coli 16329; Escherichia coli, 16329, read-out: MIC of rifampin in presence of C12(ω7)KKc12K, E. coli 16329, OAK 1.25 µg/ml) of 8 µg/mL. The MIC (E. coli 16329; Escherichia coli, 16329, read-out: MIC of rifampin in presence of C12(ω7)KKc12K, E. coli 16329, OAK 2.5 µg/ml) was 0.031 µg/mL, the MIC (E. coli 16329; Escherichia coli, 16329, read-out: MIC of rifampin in presence of C12(ω7)KKc12K, E. coli 16329, OAK 5 µg/ml) was 0.008 µg/mL and the “SF … with C10KKc12K” value (S. Typhimurium 14028; S. Typhimurium 14028) was 2000. For the same compound, the “SF … with C12(ω7)KKc12K” value (S. Typhimurium 14028; S. Typhimurium 14028) was 2667, the MIC (S. Typhimurium 14028; read-out: MIC of rifampin in presence of C10KKc12K, S. Typhimurium 14028, OAK 0 µg/ml) was 16 µg/mL and the MIC (S. Typhimurium 14028; read-out: MIC of rifampin in presence of C10KKc12K, S. Typhimurium 14028, OAK 1.25 µg/ml) was 8 µg/mL. For the same compound, the MIC (S. Typhimurium 14028; read-out: MIC of rifampin in presence of C10KKc12K, S. Typhimurium 14028, OAK 5 µg/ml) was 0.008 µg/mL, the MIC (S. Typhimurium 14028; read-out: MIC of rifampin in presence of C12(ω7)KKc12K, S. Typhimurium 14028, OAK 0 µg/ml) was 16 µg/mL and the MIC (S. Typhimurium 14028; read-out: MIC of rifampin in presence of C12(ω7)KKc12K, S. Typhimurium 14028, OAK 1.25 µg/ml) was 8 µg/mL. The MIC (S. Typhimurium 14028; read-out: MIC of rifampin in presence of C12(ω7)KKc12K, S. Typhimurium 14028, OAK 2.5 µg/ml) was 0.016 µg/mL, the MIC (S. Typhimurium 14028; read-out: MIC of rifampin in presence of C12(ω7)KKc12K, S. Typhimurium 14028, OAK 5 µg/ml) was 0.006 µg/mL and the “SF … with C10KKc12K” value (S. stanley 7308; S. stanley 7308) was 2000. For the same compound, the MIC (S. stanley 7308; OAK 0 µg/ml) was 16 µg/mL, the MIC (S. stanley 7308; OAK 1.25 µg/ml) was 16 µg/mL and the MIC (S. stanley 7308; OAK 2.5 µg/ml) was 0.125 µg/mL. The MIC (S. stanley 7308; OAK 5 µg/ml) was 0.008 µg/mL and the “survivors at day 7, single dose monotherapy” value (K. pneumoniae) was 10%.
